Laboratory results as given in patent US8592174B2, “Peptidase substrates” (bioMérieux, S.A., priority 2009, dated 2013).

What was measured:
Format in all cases: cell-based
[1] = system: Escherichia coli NCTC 10 418; assay: Peptidase detection on Columbia medium (Example 2); design: key to Growth: NG: No growth; 0.5: weak growth; 1: moderate growth; 2: good growth; details: 80 mg in 400 ml Columbia; 24 h 37° C.
Description: (§2) The 6 media were distributed into Petri dishes 90 mm in diameter, in a proportion of 20 ml per dish.
(§3) Seventeen strains of microorganisms stemming from collections and belonging to various species of bacteria and yeasts are inoculated in spots of approximately 10 000 colony-forming units.
(§4) The media are incubated for 24 hours at 37° C., and then the colonies formed are examined visually, with or without the addition of acid and under a UV lamp at 365 nm.

[2] = system: Serratia marcescens NCTC 10 211; assay: Peptidase detection on Columbia medium (Example 2); design: key to Growth: NG: No growth; 0.5: weak growth; 1: moderate growth; 2: good growth; details: 80 mg in 400 ml Columbia; 24 h 37° C.
[3] = system: Pseudomonas aeruginosa NCTC 10 662; assay: Peptidase detection on Columbia medium (Example 2); design: key to Growth: NG: No growth; 0.5: weak growth; 1: moderate growth; 2: good growth; details: 80 mg in 400 ml Columbia; 24 h 37° C.
Description: as §2, §3, §4

[4] = system: Yersinia enterocolitica NCTC 11 176; assay: Peptidase detection on Columbia medium (Example 2); design: key to Growth: NG: No growth; 0.5: weak growth; 1: moderate growth; 2: good growth; key to Color: —: no color; details: 80 mg in 400 ml Columbia; 24 h 37° C.
Description: as §2, §3, §4

[5] = system: Salmonella typhimurium NCTC 74; assay: Peptidase detection on Columbia medium (Example 2); design: key to Growth: NG: No growth; 0.5: weak growth; 1: moderate growth; 2: good growth; key to Color: —: no color; details: 80 mg in 400 ml Columbia; 24 h 37° C.
Description: as §2, §3, §4

[6] = system: Enterobacter cloacae NCTC 11 936; assay: Peptidase detection on Columbia medium (Example 2); design: key to Growth: NG: No growth; 0.5: weak growth; 1: moderate growth; 2: good growth; details: 80 mg in 400 ml Columbia; 24 h 37° C.
Description: as §2, §3, §4

[7] = system: Providencia rettgeri NCTC 7 475; assay: Peptidase detection on Columbia medium (Example 2); design: key to Growth: NG: No growth; 0.5: weak growth; 1: moderate growth; 2: good growth; key to Color: —: no color; details: 80 mg in 400 ml Columbia; 24 h 37° C.
Description: as §2, §3, §4

[8] = system: Bacillus subtilis NCTC 9 372; assay: Peptidase detection on Columbia medium (Example 2); design: key to Growth: NG: No growth; 0.5: weak growth; 1: moderate growth; 2: good growth; details: 80 mg in 400 ml Columbia; 24 h 37° C.
Description: as §2, §3, §4

[9] = system: Enterococcus faecalis NCTC 775; assay: Peptidase detection on Columbia medium (Example 2); design: key to Growth: NG: No growth; 0.5: weak growth; 1: moderate growth; 2: good growth; key to Fluo. / Color / Color post-acid.: —: no color; details: 80 mg in 400 ml Columbia; 24 h 37° C.
Description: as §2, §3, §4

[10] = system: Enterococcus faecium NCTC 7 171; assay: Peptidase detection on Columbia medium (Example 2); design: key to Growth: NG: No growth; 0.5: weak growth; 1: moderate growth; 2: good growth; key to Fluo. / Color / Color post-acid.: —: no color; details: 80 mg in 400 ml Columbia; 24 h 37° C.
Description: as §2, §3, §4

[11] = system: Staphylococcus epidermidis NCTC 11 047; assay: Peptidase detection on Columbia medium (Example 2); design: key to Fluo. / Color / Color post-acid.: —: no color; details: 80 mg in 400 ml Columbia; 24 h 37° C.
Description: as §2, §3, §4

[12] = system: Staphylococcus aureus NCTC 6 571; assay: Peptidase detection on Columbia medium (Example 2); design: key to Growth: NG: No growth; 0.5: weak growth; 1: moderate growth; 2: good growth; key to Fluo. / Color / Color post-acid.: —: no color; details: 80 mg in 400 ml Columbia; 24 h 37° C.
[13] = system: Staphylococcus aureus NCTC 11 939; assay: Peptidase detection on Columbia medium (Example 2); design: key to Growth: NG: No growth; 0.5: weak growth; 1: moderate growth; 2: good growth; details: 80 mg in 400 ml Columbia; 24 h 37° C.
[14] = system: Streptococcus pyogenes NCTC 8 306; assay: Peptidase detection on Columbia medium (Example 2); design: key to Fluo. / Color / Color post-acid.: —: no color; details: 80 mg in 400 ml Columbia; 24 h 37° C.
[15] = system: Listeria monocytogenes NCTC 11 994; assay: Peptidase detection on Columbia medium (Example 2); design: key to Growth: NG: No growth; 0.5: weak growth; 1: moderate growth; 2: good growth; key to Fluo. / Color / Color post-acid.: —: no color; details: 80 mg in 400 ml Columbia; 24 h 37° C.
Description: as §2, §3, §4

[16] = system: Candida albicans ATCC 90 028; assay: Peptidase detection on Columbia medium (Example 2); design: key to Growth: NG: No growth; 0.5: weak growth; 1: moderate growth; 2: good growth; key to Fluo. / Color / Color post-acid.: —: no color; details: 80 mg in 400 ml Columbia; 24 h 37° C.
Description: as §2, §3, §4

[17] = system: Candida glabrata NCPF 3 943; assay: Peptidase detection on Columbia medium (Example 2); design: key to Growth: NG: No growth; 0.5: weak growth; 1: moderate growth; 2: good growth; key to Fluo. / Color / Color post-acid.: —: no color; details: 80 mg in 400 ml Columbia; 24 h 37° C.
Description: as §2, §3, §4

[18] = system: Acinetobacter baumannii 0604029; assay: Peptidase detection on Columbia medium (Example 4); details: 75 mg/l, 48 h 37° C.
Text: (§1) After homogenization, the media were distributed into 120-mm-squared dishes. A medium serving as a growth control (Columbia) and denoted C was also poured.

[19] = system: Bacillus subtilis 0204038; assay: Peptidase detection on Columbia medium (Example 4); details: 75 mg/l, 48 h 37° C.
Text: as §1

[20] = system: Burkholderia cepacia 7507032; assay: Peptidase detection on Columbia medium (Example 4); details: 75 mg/l, 48 h 37° C.
Text: as §1

Candida albicans 0801025 = assay: Peptidase detection on Columbia medium (Example 4); details: 75 mg/l, 48 h 37° C.
Text: as §1

Candida glabrata 0408083 = assay: Peptidase detection on Columbia medium (Example 4); details: 75 mg/l, 48 h 37° C.
Text: as §1

[21] = system: Citrobacter freundii 0006197; assay: Peptidase detection on Columbia medium (Example 4); details: 75 mg/l, 48 h 37° C.
Text: as §1

[22] = system: Enterobacter cloacae 0604040; assay: Peptidase detection on Columbia medium (Example 4); details: 75 mg/l, 48 h 37° C.
Text: as §1

[23] = system: Enterococcus faecalis 0008192; assay: Peptidase detection on Columbia medium (Example 4); details: 75 mg/l, 48 h 37° C.
Text: as §1

[24] = system: Enterococcus faecium 0610021; assay: Peptidase detection on Columbia medium (Example 4); details: 75 mg/l, 48 h 37° C.
Text: as §1

Escherichia coli 0002005 = assay: Peptidase detection on Columbia medium (Example 4); details: 75 mg/l, 48 h 37° C.
Text: as §1

[25] = system: Klebsiella pneumoniae 0008009; assay: Peptidase detection on Columbia medium (Example 4); details: 75 mg/l, 48 h 37° C.
Text: as §1

[26] = system: Listeria monocytogenes 8812049; assay: Peptidase detection on Columbia medium (Example 4); details: 75 mg/l, 48 h 37° C.
Text: as §1

MRSA 0303033 = assay: Peptidase detection on Columbia medium (Example 4); details: 75 mg/l, 48 h 37° C.
Text: as §1

[27] = system: Morganella morganii 9207053; assay: Peptidase detection on Columbia medium (Example 4); details: 75 mg/l, 48 h 37° C.
Text: as §1

[28] = system: Providencia rettgeri 0706064; assay: Peptidase detection on Columbia medium (Example 4); details: 75 mg/l, 48 h 37° C.
Text: as §1

[29] = system: Pseudomonas aeruginosa 0001001; assay: Peptidase detection on Columbia medium (Example 4); details: 75 mg/l, 48 h 37° C.
Text: as §1

[30] = system: Salmonella ser typhimurium 0801029; assay: Peptidase detection on Columbia medium (Example 4); details: 75 mg/l, 48 h 37° C.
Text: as §1

[31] = system: Serratia marcescens 7303004; assay: Peptidase detection on Columbia medium (Example 4); details: 75 mg/l, 48 h 37° C.
Text: as §1

[32] = system: Staphylococcus aureus 7811049; assay: Peptidase detection on Columbia medium (Example 4); details: 75 mg/l, 48 h 37° C.
Text: as §1

[33] = system: Staphylococcus epidermidis 0203050; assay: Peptidase detection on Columbia medium (Example 4); details: 75 mg/l, 48 h 37° C.
Text: as §1

[34] = system: Streptococcus pyogenes 9806380; assay: Peptidase detection on Columbia medium (Example 4); details: 75 mg/l, 48 h 37° C.
Text: as §1

[35] = system: Yersinia enterocolitica 7605019; assay: Peptidase detection on Columbia medium (Example 4); details: 75 mg/l, 48 h 37° C.
Text: as §1

C[n+]1ccc(C=Cc2ccc(NC(=O)[C@@H](N)CC(N)=O)cc2)c2ccccc21.O=C(O)C(F)(F)F.O=C([O-])C(F)(F)F [Asn-ASQM^+, L-asparaginyl-4-(4′-amidostyryl)-N-methylquinolinium-bis-TFA]
Color [1]: Pale orange
Growth [1]: 2
Color [2]: Pale orange
Growth [2]: 2
Color [3]: Pale orange
Growth [3]: 2
Color [4]: —
Growth [4]: 2
Color [5]: —
Growth [5]: 2
Color [6]: Pale orange
Growth [6]: 2
Color [7]: —
Growth [7]: 2
Color [8]: Orange
Growth [8]: 2
Color [9]: —
Growth [9]: 2
Color [10]: —
Growth [10]: 2
Color [11]: —
Color [12]: —
Growth [12]: 0.5
Color [13]: Orange
Growth [13]: 2
Color [14]: —
Color [15]: —
Growth [15]: 2
Color [16]: —
Growth [16]: 2
Color [17]: —
Growth [17]: 0.5

C[C@H](N)C(=O)N[C@@H](C)C(=O)Nc1ccc(C=Cc2cc[n+](C)c3ccccc23)cc1.Cl.[Cl-] [L-alanyl-L-alanyl-4-(4′-amidostyryl)-N-methylquinolinium (dichloride)]
Color [18]: orange
Coloration strength [18]: +
Growth ([18]; control C: ++): ++
Color [19]: −
Coloration strength [19]: −
Growth ([19]; control C: ++): ++
Color [20]: −
Coloration strength [20]: −
Growth ([20]; control C: ++): ++
Coloration strength (Candida albicans 0801025): −
Growth (Candida albicans 0801025; control C: ++): +
Coloration strength (Candida glabrata 0408083): −
Growth (Candida glabrata 0408083; control C: +): −
Color [21]: −
Coloration strength [21]: −
Growth ([21]; control C: ++): ++
Color [22]: orange
Coloration strength [22]: +
Growth ([22]; control C: ++): ++
Color [23]: −
Coloration strength [23]: −
Growth ([23]; control C: ++): ++
Color [24]: −
Coloration strength [24]: −
Growth ([24]; control C: ++): ++
Color (Escherichia coli 0002005): −
Coloration strength (Escherichia coli 0002005): −
Growth (Escherichia coli 0002005; control C: ++): ++
Color [25]: orange
Coloration strength [25]: +
Growth ([25]; control C: ++): ++
Color [26]: orange
Coloration strength [26]: +
Growth ([26]; control C: ++): ++
Color (MRSA 0303033): −
Coloration strength (MRSA 0303033): −
Growth (MRSA 0303033; control C: ++): ++
Color [27]: −
Coloration strength [27]: −
Growth ([27]; control C: ++): ++
Color [28]: −
Coloration strength [28]: −
Growth ([28]; control C: ++): ++
Color [29]: −
Coloration strength [29]: −
Growth ([29]; control C: ++): ++
Color [30]: −
Coloration strength [30]: −
Growth ([30]; control C: ++): ++
Color [31]: orange
Coloration strength [31]: +
Growth ([31]; control C: ++): ++
Color [32]: −
Coloration strength [32]: −
Growth ([32]; control C: ++): ++
Color [33]: −
Coloration strength [33]: −
Growth ([33]; control C: ++): ++
Color [34]: orange
Coloration strength [34]: +
Growth ([34]; control C: ++): ++
Color [35]: −
Coloration strength [35]: −
Growth ([35]; control C: ++): ++
